Values joined by “and” are separate entries in the source; they are usually repeats but may differ in a detail not shown here. Identical values can stand only once. “Also recorded” adds a separate entry of the source.
Assays:
[1] = Particle size distribution by laser diffraction after size reduction; type: physicochemical
Experimental: For jet milling, a lab scale MCOne unit from Jetpharma was used with the following operating conditions: venturi pressure 2-4 bar, milling pressure 3-5 bar, feed rate 90 g/h. For wet polishing, feed suspensions were prepared using purified water. A microfluidics high pressure homogenizer was used for the size reduction step and the resulting suspension was spray-dried. Details of the wet polishing process are set forth below.
The high pressure homogenizer used for the size reduction step of the wet polishing process was a pilot-scale Microfluidics High Pressure Homogenizer equipped with an auxiliary processing module (200 micron) and a 100 micron interaction chamber was used. The unit was operated at ˜455 bar (˜30 bar in the intensifier module hydraulic pressure). After microfluidization the fluid was removed by spray drying to generate a dry powder. A laboratory scale spray dryer, SD45 (BÜCHI, model B-290 Advanced) was equipped with a two fluid nozzle (cap and diameter were 1.4 and 0.7 mm, respectively). Two cyclones in series were used (being the first the standard Buchi cyclone and the second the high-performance Buchi cyclone) to collect the dried product. The spray drying unit was operated with nitrogen and in single pass mode, i.e. without recirculation of the drying nitrogen. The aspirator, blowing nitrogen, was set at 100% of its capacity (flow rate at maximum capacity is approximately 40 kg/h). The flow rate of the atomization nitrogen was adjusted to a value in the rotameter of 40±5 mm. Before feeding the product suspension, the spray dryer was stabilized with purified water, during which the flow rate was adjusted to 6 ml/min (20% in the peristaltic pump). The inlet temperature was adjusted to achieve the target outlet temperature (45° C.). After stabilization of the temperatures, the feed of the spray dryer was commuted from purified water to the product suspension (keeping the same flow rate used during stabilization) and the inlet temperature once again adjusted in order to achieve the target outlet temperature. At the end of the stock suspension, the feed was once more commuted to purified water in order to rinse the feed line and perform a controlled shut down. The dry product in the collection flasks under both cyclones was weighed and the yield calculated as the mass percentage of the dry product in relation to the total solids in the suspension fed to the high pressure homogenizer.
Particle size distribution was analyzed by laser diffraction. Solid state characterization (for polymorphic form and purity) was performed by high pressure liquid chromatography (HPLC), X-ray powder diffraction (XRPD), and differential scanning calorimetry (mDSC). Water content was determined by the Karl Fischer method.

[2] = Rapamycin in lung and blood by LC-MS/MS after oropharyngeal aspiration (OPA) or oral gavage; type: in vivo, male C57BL/6 mice
Experimental: Test Chemical Preparation: Evans Blue was prepared at 0.5% w/v in sterile distilled water. Rapamune Oral® was administered as supplied for oral dosing.
Dosing: Each animal was weighed prior to dosing to determine the amount of dose to be administered. A single gavage dose was administered using a […], glass syringe (Hamilton, Reno, Nev.) fitted with a ball-tipped 20-G stainless steel gavage dosing needle (Popper & Sons Inc., New Hyde Park, N.Y.). The dose administered to each animal was determined from the weight of the full syringe minus that of the empty syringe. The dosing time was recorded. Dosing of animals was spaced apart to allow blood collection at the appropriate times. The dose formulations administered to each group are shown below.
Each mouse was anesthetized with isoflurane, and restrained with the mouth open. The tongue was held to one side of the mouth with forceps, and the dose was slowly injected into the distal part of the oral cavity. The nostrils were covered with a finger for two breaths to ensure aspiration (Rao et al., 2003).
Collection of Blood and Lung Samples: At study termination (1 or 72 h after dosing), mice were anesthetized by exposure to CO2, and blood was collected by cardiac puncture with dipotassium EDTA as anticoagulant. Lung tissue was excised and divided into the right and left lung. The left lung was used for analysis, and the right lung flash frozen in liquid nitrogen and stored at −70° C. for further analysis.
Triamcinolone was used as internal standard.
Lung homogenate was prepared by homogenization of weighed lung samples with 2.8-mm ball bearings in a homogenizer with tissue+deionized water (1:3 w/v) in a SPEX SamplePrep 2010 Geno/Grinder.
The concentrations of standards were arranged so that each standard came from an alternate stock standard. A six-point calibration curve, each made in triplicate, was employed for analyte quantitation. A simple linear regression model with or without weighting was employed for curve fitting. The concentration range determined was from 1-2000 ng/mL in blood and 2-2000 ng/mL in lung homogenate.
Thirty (30) μL of matrix, 30 μL of spiking solution (methanol for blanks and samples), 10 μL Internal standard solution (in MeOH) and 90 μL of MeOH were pipetted into microcentrifuge tubes, vortexed briefly, then centrifuged for 6 min at 10,000 RPM at −4° C. Aliquots (90 μL) of supernatant were transferred to LC vial inserts, and then analyzed by LC-MS/MS (Table 2).

[3] = test system: S6 phosphorylation (mTOR pathway); test: Phosphorylated S6 by western blot in AML cells; type: cell-based, human; settings: 20 nM, 24 hours (FIG. 7, top)

Question: What does the source list for `CO[C@H]1C[C@@H]2CC[C@@H](C)[C@@](O)(O2)C(=O)C(=O)N2CCCC[C@H]2C(=O)O[C@H]([C@H](C)C[C@@H]2CC[C@@H](O)[C@H](OC)C2)CC(=O)[C@H](C)/C=C(\C)[C@@H](O)[C@@H](OC)C(=O)[C@H](C)C[C@H](C)/C=C/C=C/C=C/1C` [Rapamycin, (3 S,6R,7E,9R,10R,12R,14S,15E,17E,19E,21S,23 S,26R,27R,34aS)-9,10,12,13,-14,21,22,23,24,25,26,27,32,33,34,34a-hexadecahydro-9,27-dihydroxy-3-[(1R)-2-[(1S,3R,4R)-4-hydroxy-3-methoxycyclohexyl]-1-methylethyl]-10,21-dimethox-y-6,8,12,14,20,26-hexamethyl-23,27-epoxy-3H-pyrido[2,1-c][1,4]oxaazacyclohentriacontine-1,5,11,28,29(4H,6H,31H)-pentone]?
Answer: PSD Dv10 ([1]; jet milling): 1.5 μm and 1.51 μm; PSD Dv50 ([1]; jet milling): 2.7 μm and 2.74 μm; PSD Dv90 ([1]; jet milling): 4.9 μm and 4.91 μm; PSD Dv10 ([1]; wet polishing): 1.51 μm; PSD Dv50 ([1]; wet polishing): 2.74 μm; PSD Dv90 ([1]; wet polishing): 5.0 μm and 4.91 μm; rapamycin in blood, in words ([2]; OPA 1 mg/kg, 72 h): below the limit of quantitation; also recorded: undetectable; Blood (ng/ml) ([2]; OPA 1 mg/kg, 72 h post-dose, individual mice): <ELOQ; Lung (ng/g tissue) ([2]; gavage (Rapamune Oral) 1 mg/kg, 1 h post-dose, individual mice, 1 mg/kg): <LOQ; rapamycin in lung or blood, in words ([2]; oral (gavage) 1 mg/kg, 72 hrs): undetectable; S6 phosphorylation [3]: potently inhibits S6 phosphorylation

From patent US11648199B2 (AI Therapeutics, Inc, priority 2014, dated 2023)
